Measured values published in patent US7423015B1, “Antihelminthic drugs as a treatment for hyperproliferative diseases” (Board of Regents, The University of Texas System, priority 2001, dated 2008).

What was measured:
H460 NSCLC cells = assay: Cell cycle profiles by FACS, MZ and vinorelbine; type: cell-based, human; conditions: sub-therapeutic low dose
Experimental: FIG. 10. MZ Enhances activity of anti-mictotic drugs in H460 NSCLC cells. H460 cells were treated with low dose of MZ or Vinorelbine. Cell cycle profiles indicating G1/S G2-Mphases were analyzed by FACS.
The doses of MZ and vinorelbine were chosen to be “sub-therapeutic”. […] Thus, in H460 NSCLC cells mebendazole enhances the activity of anti-mitotic drugs.

[1] = test system: A549 metastatic lung colonies; assay: Lung metastases in vivo after tail vein injection; design: species or system female nude mice; conditions: paclitaxel alone, other experiments
Experimental: To establish lung metastases, female nude mice were injected intravenously via tail vein with 10^6 A549 tumor cells suspended in […] of sterile PBS. Six days later, mice were divided into two groups of 5 mice each and treated. Group 1 received no treatment and group 2 received the experimental MZ drug orally at 1 mg of drug (100 μl) twice a week for 3 weeks. After 3 weeks, animals were euthanized by CO2 inhalation. Lungs from each of the mice from the two groups were injected intra-tracheally with India ink and fixed in Feketes solution. The therapeutic effect of MZ treatment was determined by counting the number of metastatic tumors in each lung under a dissecting microscope without knowledge of the treatment groups. The experiments were performed three times and data analyzed and interpreted as statistically significant if the p value was <0.05 by the Mann-Whitney rank-sum test.
Next, the inventors asked whether treatment with MZ would inhibit the growth of human metastatic lung cancer cells in vivo. About 300 metastatic colonies appeared on untreated mice 21 days after A549 cell injection into the tail vein (FIG. 6). This technique was reproducible as the totals blindly counted by two investigators differed by less than 10%. This experiment was performed three times with similar results. The oral administration of […] MZ reduced mean colony count to 80% of the mean value for controls (P<0.0001).

Compound	apoptosis under monotherapy (H460 NSCLC cells)	colony formation [1]
CCC1=C[C@@H]2CN(C1)Cc1c([nH]c3ccccc13)[C@@](C(=O)OC)(c1cc3c(cc1OC)N(C)[C@H]1[C@@](O)(C(=O)OC)[C@H](OC(C)=O)[C@]4(CC)C=CCN5CC[C@]31[C@@H]54)C2 [Vinorelbine]	No apoptosis	–
CC(=O)O[C@H]1C(=O)[C@@]2(C)[C@H]([C@H](OC(=O)c3ccccc3)[C@]3(O)C[C@H](OC(=O)[C@H](O)[C@@H](NC(=O)c4ccccc4)c4ccccc4)C(C)=C1C3(C)C)[C@]1(OC(C)=O)CO[C@@H]1C[C@@H]2O [paclitaxel]	–	no significant reduction
